Laboratory results published in publication PMC9407205, “Neuroprotective Potential of Thinned Peaches Extracts Obtained by Pressurized Liquid Extraction after Different Drying Processes” (Foods, 2022).
Marks after values point to notes of the source that are not given here.

Tests used:
[1] = parallel artificial membrane permeability assay for the BBB (PAMPA-BBB); format: in vitro ADME; conditions: metabolites in the five PLE extracts, 4 h at 37 °C, pH 7.4; result in words
Method: The parallel artificial membrane permeability assay for the BBB assay was carried out as previously described with some modifications. Briefly, 20 mg/mL thinned peach extracts in 50% ethanol (v/v) was diluted to 5 mg/mL with potassium phosphate buffer (10 mmol/L, pH 7.4). Then, 350 μL of 5 mg/mL extracts and 350 μL of buffer were added to each well of the donor plate and the acceptor plate, respectively. The filter membrane of the donor plate was coated with 5 µL of BBB solution. Afterwards, the whole plate was incubated in the dark for 4 h at 37 °C. After incubation, 300 µL of sample from each well in the donor and acceptor plates was taken out, collected and dried. The dried acceptor and donor samples were redissolved in 50 µL of ethanol and analyzed via HPLC-Q-TOF-MS/MS as described below. The permeability across the artificial BBB of each compound was calculated in terms of cm/s, as in [16].

[2] = ROS scavenging capacity, oxygen radical absorbance capacity (ORAC) assay; conditions: PLE extracts under optimized conditions (50% ethanol, 180 °C) and reference standard
Method: The ROS scavenging capacity was measured using the oxygen radical absorbance capacity (ORAC) assay described by Ou et al. (2001). Briefly, the reaction mixture contained 100 μL of samples at different concentrations in 10% ethanol (v/v), 100 μL of 590 mmol/L AAPH in 30 mmol/L phosphate buffer (pH 7.5), 100 μL of phosphate buffer and 25 μL of 10 μmol/L fluorescein in buffer. The absorbance was read at the 485 nm excitation spectrum and 528 nm emission spectrum, and recorded at 5 min intervals for 60 min at 37 °C. Ascorbic acid was used as the reference standard and 10% ethanol (v/v) was used as the control. The ROS scavenging capacity was calculated as described by Sánchez-Martínez et al. (2021).

[3] = RNS scavenging capacity, nitric oxide (NO) radical scavenging assay; conditions: at the maximum concentration tested, 0.8 mg/mL; PLE extracts under optimized conditions and ascorbic acid
Method: The RNS scavenging capacity was estimated by referring to the nitric oxide (NO) radical scavenging assay described by Ho et al. (2010), with some modifications. In brief, 100 μL of the thinned peach extracts in 25% ethanol (v/v) was mixed with 50 μL of 5 mM sodium nitroprusside dehydrate in buffer (30 mmol/L phosphate buffer at pH 7.5) using a transparent 96-well plate. The mixtures were placed under white light at room temperature for 60 min. Afterwards, 100 μL of Griess reagent (500 mg sulphanilamide, 50 mg naphthylethylene diamine dihydrochloride and 1.25 mL of phosphoric acid in 48.5 mL of H2O) was added to each well. The mixtures were allowed to stand for 5 min and the absorbance was read at 546 nm. Ascorbic acid was used as the reference standard and the NO scavenging capacity was calculated as described by Sánchez-Martínez et al. (2021).

Compound: Cc1cc(=O)oc2c(O)c(O)ccc12 [4-methyldaphnetin, 4-Methyldaphnetin]
- ability to cross the artificial BBB [1]: could cross the BBB

Compound: COc1ccc(/C=C/C(=O)O)cc1O [isoferulic acid, Isoferulic acid]
- ability to cross the artificial BBB [1]: could cross the BBB

Compound: CC(=O)c1ccc(O)c(O)c1 [3,4-dihydroxyacetophenone, 3,4-Dihydroxyacetophenone]
- ability to cross the artificial BBB [1]: could cross the BBB

Compound: O=C1O[C@H]([C@@H](O)CO)C(O)=C1O [Ascorbic acid]
- ROS (IC50) [2]: 3.3 ± 0.6 ^e µg/mL
- RNS, percentage of inhibition of nitrogen species with respect to the control [3]: 83.8 ± 4 ^a %

Compound: CC1(C)CC[C@]2(C(=O)O)CC[C@]3(C)C(=CCC4[C@@]5(C)C[C@@H](O)[C@H](O)[C@](C)(CO)C5CC[C@]43C)[C@@H]2[C@@H]1O (stereo partly drawn) [triterpenoid 3, (1S,4aR,6aS,6bR,9S,10R,11R,12aR,14bS)-1,10,11-trihydroxy-9-(hydroxymethyl)-2,2,6a,6b,9,12a-hexamethyl-1,3,4,5,6,6a,7,8,8a,10,11,12,13,14b-tetradecahydropicene-4a-carboxylic acid]
- ability to cross the artificial BBB [1]: highest permeability value

Compound: CCCCCCCC(O)/C=C\C(O)CCC(O)CCCC(=O)O (stereo not shown) [(9Z)-5,8,11-Trihydroxyoctadec-9-enoic acid]
- ability to cross the artificial BBB [1]: could cross the BBB
